Assay results: patent US20140120232A1, “ACID TASTE/ACID SMELL-REDUCING AGENT” (T. HASEGAWA CO., LTD., priority 2011, published 2014)

Test: Sensory evaluation of dressing containing the agent
Conditions: ten panels
Experimental: Sensory evaluation of each drink was carried out by ten panels. […] The piercing aroma characteristic to aldehydes is a characteristic aroma common to every aldehyde and refers to an irritant off-smell giving an image of deteriorated oils and fats, soap, metals, Houttuynia cordata, etc. The judgment of smell was performed by comparing the effects at different concentrations of the acid taste and/or acid smell-reducing agent, and a concentration giving the highest acid taste/acid smell quality was selected.
A separation-type dressing base material (100 g) was prepared by mixing 20 g of edible vinegar, 35 g of vegetable oils and fats, and 45 g of an aqueous solution containing spices and extracts with stirring. To the resulting mixture was added (Z,Z)-4,7-tridecadienal as the acid taste and/or acid smell-reducing agent of the present invention in concentrations shown in the following Table 10 to give dressings containing the agent, followed by sensory evaluation as in Example 1.

In the case of `CCCCC/C=C\C/C=C\CCC=O` [(Z,Z)-4,7-tridecadienal], the “A: number of panels, acid taste/acid smell extreme and cause irritation” value (0.005 ppt) is reported as 10, the “B: number of panels, acid taste/acid smell slightly strong and slightly cause irritation” value (0.005 ppt) is reported as 0 and the “C: number of panels, acid taste/acid smell slightly unpleasant” value (0.005 ppt) is reported as 0. For the same molecule, the “Flavor judgment: number of panels who judged acid taste/acid smell quality the highest” value (0.005 ppt) was 0, the “N: number of panels, irritation of acid reduced to give a mild acid taste” value (0.005 ppt) was 0 and the “X: number of panels, acid taste reduced but piercing odor characteristic to aldehydes unpleasant” value (0.005 ppt) was 0. For the same molecule, the “A: number of panels, acid taste/acid smell extreme and cause irritation” value (0.02 ppt) was 9, the “B: number of panels, acid taste/acid smell slightly strong and slightly cause irritation” value (0.02 ppt) was 1 and the “C: number of panels, acid taste/acid smell slightly unpleasant” value (0.02 ppt) was 0. For the same molecule, the “Flavor judgment: number of panels who judged acid taste/acid smell quality the highest” value (0.02 ppt) was 0, the “N: number of panels, irritation of acid reduced to give a mild acid taste” value (0.02 ppt) was 0 and the “X: number of panels, acid taste reduced but piercing odor characteristic to aldehydes unpleasant” value (0.02 ppt) was 0. For the same molecule, the “A: number of panels, acid taste/acid smell extreme and cause irritation” value (0.1 ppt) was 6, the “B: number of panels, acid taste/acid smell slightly strong and slightly cause irritation” value (0.1 ppt) was 4 and the “C: number of panels, acid taste/acid smell slightly unpleasant” value (0.1 ppt) was 0. For the same molecule, the “Flavor judgment: number of panels who judged acid taste/acid smell quality the highest” value (0.1 ppt) was 0, the “N: number of panels, irritation of acid reduced to give a mild acid taste” value (0.1 ppt) was 0 and the “X: number of panels, acid taste reduced but piercing odor characteristic to aldehydes unpleasant” value (0.1 ppt) was 0. The “A: number of panels, acid taste/acid smell extreme and cause irritation” value (0.2 ppt) was 4, the “B: number of panels, acid taste/acid smell slightly strong and slightly cause irritation” value (0.2 ppt) was 4 and the “C: number of panels, acid taste/acid smell slightly unpleasant” value (0.2 ppt) was 2. The “Flavor judgment: number of panels who judged acid taste/acid smell quality the highest” value (0.2 ppt) was 0, the “N: number of panels, irritation of acid reduced to give a mild acid taste” value (0.2 ppt) was 0 and the “X: number of panels, acid taste reduced but piercing odor characteristic to aldehydes unpleasant” value (0.2 ppt) was 0. For the same molecule, the “A: number of panels, acid taste/acid smell extreme and cause irritation” value (0.5 ppt) was 1, the “B: number of panels, acid taste/acid smell slightly strong and slightly cause irritation” value (0.5 ppt) was 2 and the “C: number of panels, acid taste/acid smell slightly unpleasant” value (0.5 ppt) was 2. The “Flavor judgment: number of panels who judged acid taste/acid smell quality the highest” value (0.5 ppt) was 1, the “N: number of panels, irritation of acid reduced to give a mild acid taste” value (0.5 ppt) was 5 and the “X: number of panels, acid taste reduced but piercing odor characteristic to aldehydes unpleasant” value (0.5 ppt) was 0. The “A: number of panels, acid taste/acid smell extreme and cause irritation” value (1 ppb) was 0, the “B: number of panels, acid taste/acid smell slightly strong and slightly cause irritation” value (1 ppb) was 0 and the “C: number of panels, acid taste/acid smell slightly unpleasant” value (1 ppb) was 3. For the same molecule, the “Flavor judgment: number of panels who judged acid taste/acid smell quality the highest” value (1 ppb) was 0, the “N: number of panels, irritation of acid reduced to give a mild acid taste” value (1 ppb) was 3 and the “X: number of panels, acid taste reduced but piercing odor characteristic to aldehydes unpleasant” value (1 ppb) was 4. The “A: number of panels, acid taste/acid smell extreme and cause irritation” value (1 ppt) was 0, the “B: number of panels, acid taste/acid smell slightly strong and slightly cause irritation” value (1 ppt) was 1 and the “C: number of panels, acid taste/acid smell slightly unpleasant” value (1 ppt) was 3. For the same molecule, the “Flavor judgment: number of panels who judged acid taste/acid smell quality the highest” value (1 ppt) was 1, the “N: number of panels, irritation of acid reduced to give a mild acid taste” value (1 ppt) was 6 and the “X: number of panels, acid taste reduced but piercing odor characteristic to aldehydes unpleasant” value (1 ppt) was 0. The “A: number of panels, acid taste/acid smell extreme and cause irritation” value (5 ppt) was 0, the “B: number of panels, acid taste/acid smell slightly strong and slightly cause irritation” value (5 ppt) was 0 and the “C: number of panels, acid taste/acid smell slightly unpleasant” value (5 ppt) was 3. The “Flavor judgment: number of panels who judged acid taste/acid smell quality the highest” value (5 ppt) was 4, the “N: number of panels, irritation of acid reduced to give a mild acid taste” value (5 ppt) was 7 and the “X: number of panels, acid taste reduced but piercing odor characteristic to aldehydes unpleasant” value (5 ppt) was 0. The “A: number of panels, acid taste/acid smell extreme and cause irritation” value (10 ppb) was 0, the “B: number of panels, acid taste/acid smell slightly strong and slightly cause irritation” value (10 ppb) was 0 and the “C: number of panels, acid taste/acid smell slightly unpleasant” value (10 ppb) was 1. For the same molecule, the “Flavor judgment: number of panels who judged acid taste/acid smell quality the highest” value (10 ppb) was 0, the “N: number of panels, irritation of acid reduced to give a mild acid taste” value (10 ppb) was 2 and the “X: number of panels, acid taste reduced but piercing odor characteristic to aldehydes unpleasant” value (10 ppb) was 7. The “A: number of panels, acid taste/acid smell extreme and cause irritation” value (20 ppt) was 0, the “B: number of panels, acid taste/acid smell slightly strong and slightly cause irritation” value (20 ppt) was 0 and the “C: number of panels, acid taste/acid smell slightly unpleasant” value (20 ppt) was 3. For the same molecule, the “Flavor judgment: number of panels who judged acid taste/acid smell quality the highest” value (20 ppt) was 4, the “N: number of panels, irritation of acid reduced to give a mild acid taste” value (20 ppt) was 7 and the “X: number of panels, acid taste reduced but piercing odor characteristic to aldehydes unpleasant” value (20 ppt) was 0. For the same molecule, the “A: number of panels, acid taste/acid smell extreme and cause irritation” value (50 ppb) was 0, the “B: number of panels, acid taste/acid smell slightly strong and slightly cause irritation” value (50 ppb) was 0 and the “C: number of panels, acid taste/acid smell slightly unpleasant” value (50 ppb) was 0. For the same molecule, the “Flavor judgment: number of panels who judged acid taste/acid smell quality the highest” value (50 ppb) was 0, the “N: number of panels, irritation of acid reduced to give a mild acid taste” value (50 ppb) was 2 and the “X: number of panels, acid taste reduced but piercing odor characteristic to aldehydes unpleasant” value (50 ppb) was 8. The “A: number of panels, acid taste/acid smell extreme and cause irritation” value (100 ppt) was 0, the “B: number of panels, acid taste/acid smell slightly strong and slightly cause irritation” value (100 ppt) was 1 and the “C: number of panels, acid taste/acid smell slightly unpleasant” value (100 ppt) was 3. For the same molecule, the “Flavor judgment: number of panels who judged acid taste/acid smell quality the highest” value (100 ppt) was 0, the “N: number of panels, irritation of acid reduced to give a mild acid taste” value (100 ppt) was 4 and the “X: number of panels, acid taste reduced but piercing odor characteristic to aldehydes unpleasant” value (100 ppt) was 2. The “A: number of panels, acid taste/acid smell extreme and cause irritation” value (500 ppt) was 0, the “B: number of panels, acid taste/acid smell slightly strong and slightly cause irritation” value (500 ppt) was 0 and the “C: number of panels, acid taste/acid smell slightly unpleasant” value (500 ppt) was 4. The “Flavor judgment: number of panels who judged acid taste/acid smell quality the highest” value (500 ppt) was 0, the “N: number of panels, irritation of acid reduced to give a mild acid taste” value (500 ppt) was 4 and the “X: number of panels, acid taste reduced but piercing odor characteristic to aldehydes unpleasant” value (500 ppt) was 2.
